Assay results from US9126973B2, “Multiheteroaryl compounds as inhibitors of H-PGDS and their use for treating prostaglandin D2 mediated diseases” (Cayman Chemical Company, Incorporated, priority 2008, dated 2015).

How the values were obtained:
[1] = target: H-PGDS (Homo sapiens (Human), UniProt O60760); assay: H-PGDS Fluorescence Polarization Binding Assay (FPBA); conditions: H-PGDS-MBP fusion enzyme, fluorescent probe, reduced glutathione 5 mM, 60-90 minutes at room temperature, 96-well format
Procedure: H-PGDS Fluorescence Polarization Binding Assay This assay essentially is available from Cayman Chemical Company as Catalog item #600007. The test data reported for the aforementioned Examples (H-PGDS FPBA IC50) were generated using a 96-well, instead of the 384-well, format. […] Assays were performed in 96-well microtiter plates in 100 μL of total sample volume. Excitation and emission wavelengths appropriate for the employed detection analyte were used. […] Twelve clean microfuge tubes were labeled A1 through A12. […] Dimethyl sulfoxide (50 μL) was added to each of tubes A1 through A11. The HQL-79 control solution was serially diluted by removing 50 μL from tube A12 and placing it in tube A11 with subsequent thorough mixing of the contents of tube A11. Next, 50 μL was removed from tube A11 and was placed into tube A10 with subsequent thorough mixing of the contents of tube A10. This process was repeated for tubes A9 through A2. […] A test compound may be dissolved in DMSO, ethanol, or methanol at several concentrations when the titration endpoint is unknown. […] Assay cocktail (95 μL) was added to each plate well. DMSO (5 μL) from microfuge tube A1 was added to each plate well A1 and B1. Positive control solution (5 μL) from microfuge tube A2 was added to each plate well A2 and B2. Positive control solution (5 μL) from microfuge tube A3 was added to each plate well A3 and B3. This procedure was continued until all the positive control standard dilutions were aliquoted. Test compound solutions (5 μL) were added to the wells. […] The IC50 for a particular test compound was obtained by performing a full concentration titration versus a full concentration titration of positive control. Comparison of a single concentration of a test compound to the maximum binding well provided an assessment of the relative affinity of the test compound for H-PGDS-MBP. The plate was covered and incubated for 60-90 minutes at room temperature. The FP signal is stable for at least two hours. […] The measurements were taken in the fluorescent polarization mode with the z-height set to the middle of the well and the G-factor set to 1.13 on a Tecan Safire 2 reader.

Chain of H-PGDS (O60760 whole entry, the tested form may be a part): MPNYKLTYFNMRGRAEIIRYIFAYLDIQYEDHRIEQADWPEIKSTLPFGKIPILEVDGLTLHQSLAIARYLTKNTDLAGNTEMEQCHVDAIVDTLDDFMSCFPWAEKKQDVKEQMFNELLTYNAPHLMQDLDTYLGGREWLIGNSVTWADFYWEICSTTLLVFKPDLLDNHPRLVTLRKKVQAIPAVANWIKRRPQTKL

Row | IC50 [1] [nM] | melting point [°C] | SMILES
1 | 600 | 179 | c1ccc(CN2CCCC(c3ncc(-c4cnc(-c5ccccc5)nc4)[nH]3)C2)cc1 (racemic) [Example 23, (±)-5-(2-(1-benzylpiperidin-3-yl)-1H-imidazol-5-yl)-2-phenylpyrimidine]
2 | 5000 | 216 | c1ccc(-c2ncc(-c3cnc[nH]3)cn2)cc1 [Example 5, 5-(1H-imidazol-5-yl)-2-phenylpyrimidine]
3 | 10000 |  | OC(N1CCCC(c2ncc(-c3cnc(-c4ccccc4)nc3)[nH]2)C1)C(F)(F)F (centres unmarked) [Example 24, 2,2,2-trifluoro-1-(3-(4-(2-phenylpyrimidin-5-yl)-1H-imidazol-2-yl)piperidin-1-yl)ethanol]
4 | > 20000 |  | c1ccc(-c2ncc(-c3cn(C(c4ccccc4)(c4ccccc4)c4ccccc4)cn3)cn2)cc1 [Example 34 (Step A), 2-phenyl-5-(1-trityl-1H-imidazol-4-yl)pyrimidine]
5 | 4000 | 254 | c1ccc(Oc2ncc(-c3cnc(-c4ccccc4)[nH]3)cn2)cc1 [Example 38, 2-phenoxy-5-(2-phenyl-1H-imidazol-5-yl)pyrimidine]
6 | 10000 | 60 | c1ccc(Cc2ncc(-c3cnc(Oc4ccccc4)nc3)[nH]2)cc1 [Example 39, 5-(2-benzyl-1H-imidazol-4-yl)-2-phenoxypyrimidine]
7 | 15000 |  | c1ccc(Cn2c(-c3ccccc3)cnc2-c2cnc(-c3ccccc3)nc2)cc1 [Example 44 (Step B), 5-(1-benzyl-5-phenyl-1H-imidazol-2-yl)-2-phenylpyrimidine]
8 | 1500 |  | c1ccc(-c2cc(-c3cnc(-c4ccccc4)nc3)[nH]n2)cc1 [Example 45, 2-phenyl-5-(3-phenyl-1H-pyrazol-5-yl)pyrimidine]
9 | > 20000 |  | c1ccc(-c2ncc(-c3ncc(-c4ccccc4)o3)cn2)cc1 [Example 47, 5-phenyl-2-(2-phenylpyrimidin-5-yl)oxazole]
10 |  | 178 to 180 | CC(C)(C)OC(=O)N1CCC(n2nnc(-c3cnc(-c4ccccc4)nc3)n2)CC1 [Example 52, tert-butyl 4-(5-(2-phenylpyrimidin-5-yl)-2H-tetrazol-2-yl)piperidine-1-carboxylate]
11 | 1300 |  | c1ccc(-c2ncc(-c3cc(-c4cccnc4)n[nH]3)cn2)cc1 [Example 53, 2-phenyl-5-(3-(pyridin-3-yl)-1H-pyrazol-5-yl)pyrimidine]
12 | > 20000 |  | Cc1nc(-c2ccccc2)sc1-c1cnc(-c2cccnc2)n1Cc1ccccc1 [Example 71, 5-(1-benzyl-2-(pyridin-3-yl)-1H-imidazol-5-yl)-4-methyl-2-phenylthiazole]
13 | 10000 |  | Cn1nnc(-c2cnc(-c3ccccc3)nc2)n1 [Example 73A, 5-(2-methyl-2H-tetrazol-5-yl)-2-phenylpyrimidine]

More lines, now with the values behind:

Row | SMILES | IC50 [1] [nM] | melting point [°C]
14 | CC(C)(C)OC(=O)N1CCCC(c2ncc(-c3cnc(-c4ccccc4)nc3)[nH]2)C1 (racemic) [Example 21, (±)-tert-butyl 3-(5-(2-phenylpyrimidin-5-yl)-1H-imidazol-2-yl)piperidine-1-carboxylate] | 200 | 130
15 | c1ccc(-c2ncc(-c3cnc(C4CCCNC4)[nH]3)cn2)cc1 (racemic) [Example 22, (±)-2-phenyl-5-(2-(piperidin-3-yl)-1H-imidazol-5-yl)pyrimidine] | 1250 | 140
16 | CNC(=O)N1CCCC(c2nc(-c3cnc(-c4ccccc4)nc3)cn2C(=O)NC)C1 (racemic) [Example 25A, (±)-N-methyl-3-(1-(methylcarbamoyl)-4-(2-phenylpyrimidin-5-yl)-1H-imidazol-2-yl)piperidine-1-carboxamide] | 620 | 
17 | CNC(=O)N1CCCC(c2ncc(-c3cnc(-c4ccccc4)nc3)[nH]2)C1 (racemic) [Example 25B, (±)-N-methyl-3-(5-(2-phenylpyrimidin-5-yl)-1H-imidazol-2-yl)piperidine-1-carboxamide] | 300 | 
18 | O=C(N1CCCC(c2nc(-c3cnc(-c4ccccc4)nc3)c[nH]2)C1)C(F)(F)F (racemic) [Example 27, (±)-2,2,2-trifluoro-1-(3-(4-(2-phenylpyrimidin-5-yl)-1H-imidazol-2-yl)piperidin-1-yl)methanone] | 90 | 
19 | CC(C)(C)OC(=O)N1CCC(c2ncc(-c3cnc(-c4ccccc4)nc3)[nH]2)C1 (racemic) [Example 28, (±)-tert-butyl 3-(5-(2-phenylpyrimidin-5-yl)-1H-imidazol-2-yl)pyrrolidine-1-carboxylate] |  | 219
20 | c1ccc(-c2ncc(-c3cnc(C4CCNC4)[nH]3)cn2)cc1 (racemic) [Example 30, (±)-2-phenyl-5-(2-(pyrrolidin-3-yl)-1H-imidazol-5-yl)pyrimidine] | 2000 | 
21 | CC(=O)N1CCCC(c2nc(-c3cnc(-c4ccccc4)nc3)c[nH]2)C1 (centres unmarked) [1-(3-(4-(2-phenylpyrimidin-5-yl)-1H-imidazol-2-yl)piperidin-1-yl)ethanone] | 90 | 
22 | c1ccc(Cn2c(-c3cnc(-c4ccccc4)nc3)cnc2-c2ccccc2)cc1 [Example 1 (Step C), 5-(1-benzyl-2-phenyl-1H-imidazol-5-yl)-2-phenylpyrimidine] | 15000 | 
23 | COc1ccc(-c2ncc(-c3cnc(-c4ccccc4)[nH]3)cn2)cc1OC [Example 7, 2-(3,4-dimethoxyphenyl)-5-(2-phenyl-1H-imidazol-5-yl)pyrimidine] | 3500 | 231
24 | c1cncc(-c2ncc(-c3cnc(-c4cccnc4)[nH]3)cn2)c1 [Example 12, 2-(pyridin-3-yl)-5-(2-(pyridin-3-yl)-1H-imidazol-5-yl)pyrimidine] | 1300 | 299
25 | c1ccc(-c2ncc(-c3cnc(CCc4cccnc4)[nH]3)cn2)cc1 [Example 16, 2-phenyl-5-(2-(2-(pyridin-3-yl)ethyl)-1H-imidazol-5-yl)pyrimidine] | 300 | 113
26 | CC(C)(C)OC(=O)N1CCC(c2ncc(-c3cnc(-c4ccccc4)nc3)[nH]2)CC1 [Example 17, tert-butyl 4-(5-(2-phenylpyrimidin-5-yl)-1H-imidazol-2-yl)piperidine-1-carboxylate] | 150 | 
27 | c1ccc(-c2ncc(-c3cnc(C4CCNCC4)[nH]3)cn2)cc1 [Example 18, 2-phenyl-5-(2-(piperidin-4-yl)-1H-imidazol-5-yl)pyrimidine] | 1000 | 
28 | O=C(c1cccnc1)N1CCC(c2nc(-c3cnc(-c4ccccc4)nc3)c[nH]2)CC1 [Example 20, (4-(4-(2-phenylpyrimidin-5-yl)-1H-imidazol-2-yl)piperidin-1-yl)(pyridin-3-yl)methanone] | 450 | 234
29 | Cn1cncc1-c1cnc(-c2ccccc2)nc1 [Example 32, 5-(1-methyl-1H-imidazol-5-yl)-2-phenylpyrimidine] | 7600 | 144
30 | c1ccc(Cn2cncc2-c2cnc(-c3ccccc3)nc2)cc1 [Example 33, 5-(1-benzyl-1H-imidazol-5-yl)-2-phenylpyrimidine] | 2000 | 140
31 | c1ccc(Cn2cnc(-c3cnc(-c4ccccc4)nc3)c2)cc1 [Example 34, 5-(1-benzyl-1H-imidazol-4-yl)-2-phenylpyrimidine] | 4000 | 195
32 | Cl.c1ccc(-c2ncc(-c3cc[nH]n3)cn2)cc1 [Example 41, 2-phenyl-5-(1H-pyrazol-3-yl)pyrimidine hydrochloride] | 2400 | 264 to 273
33 | O=C(O)c1cc(-c2cnc(Oc3ccccc3)nc2)[nH]n1 [Example 56, 5-(2-phenoxypyrimidin-5-yl)-1H-pyrazole-3-carboxylic acid] | 5000 | 
34 | CC(C)(C)OC(=O)c1csc(-c2cnc(-c3ccccc3)nc2)n1 [Example 62, tert-butyl 2-(2-phenylpyrimidin-5-yl)thiazole-4-carboxylate] | 5900 | 
35 | O=C(O)c1csc(-c2cnc(-c3ccccc3)nc2)n1 [Example 63, 2-(2-Phenylpyrimidin-5-yl)thiazole-4-carboxylic acid] | 1100 | 
36 | O=C(NCCN1CCOCC1)c1csc(-c2cnc(-c3ccccc3)nc2)n1 [Example 65, N-(2-morpholinoethyl)-2-(2-phenylpyrimidin-5-yl)thiazole-4-carboxamide] | 2500 | 
37 | Cc1ccc(-c2cnc(-c3cccnc3)n2Cc2ccccc2)cn1 [Example 66 (Step A), 5-(1-benzyl-2-(pyridin-3-yl)-1H-imidazol-5-yl)-2-methylpyridine] | > 10000 | 
38 | Cc1ccc(-c2cnc(-c3cccnc3)[nH]2)cn1 [Example 66, 2-methyl-5-(2-(pyridin-3-yl)-1H-imidazol-5-yl)pyridine] | > 10000 | 
39 | Cn1nnnc1-c1cnc(-c2ccccc2)nc1 [Example 73B, 5-(1-methyl-1H-tetrazol-5-yl)-2-phenylpyrimidine] | 20000 | 
